“Also recorded” adds a separate entry of the source. Residues, ends and D or L forms follow the SMILES beside them. *: point of attachment. Cbz = O=C(OCc1ccccc1)*
Assays:
primary MM cells = test: MTS survival assay, primary bone-marrow MM tumor cells from patients; type: cell-based, human; conditions: FIG. 36C
Description: Primary bone-marrow tumor cells and endothelial progenitor cells (EPCs) were obtained from previously untreated MM patients. That is, 10 ml bone marrow aspirates were collected in BD Vacutainers containing heparin (BD, Franklin, N.J.), and red cells may be removed from MM bone marrow samples using a Red Blood Cell Lysis Buffer (Roche Applied Science, Indianapolis, Ind.) to obtain primary tumor cells in marrow samples consisting of greater than 80% CD138-positive tumor cells, determined by flow cytometry as may be desired. Tumor cells were used for experiments the day they were harvested, and were cultured in the MM cell line medium described above.
(§1) MAL3-101 (the structure is shown as the final product in FIG. 12, in FIG. 13, and in FIG. 25B), the proteasome inhibitor MG-132 (A.G. Scientific, San Diego, Calif.) and the Hsp90 inhibitor 17-allylamino-17-demethoxygeldanamycin (17-AAG) (Calbiochem/EMD Biosciences, San Diego, Calif.) were dissolved in dimethylsulfoxide (DMSO; Sigma-Aldrich, St. Louis, Mo.), and stored at −20° C. Final concentration of DMSO was 0.03% and this was used to treat control cells. The MM cell lines examined were NCI-H929, RPMI-8226, and U266 (ATCC, Manassas, Va.). Normal peripheral blood mononuclear cells (PBMC) and bone marrow (BM) cells were obtained from StemCell Technologies (Vancouver, Canada). […]

[1] = MTS survival assay, endothelial progenitor cells (EPCs) from MM patients; type: cell-based, human; conditions: human, EPCs of MM patients, FIG. 36C, read-out: reduction of viability of EPCs
Description: (§2) For endothelial progenitor cells (EPC) outgrowth, bone marrow were further separated using Ficoll-Hypaque (Sigma Chemicals, St Louis, Mo.) density-gradient centrifugation and mononuclear cells were cultured (7×10^6 cells/well) in laminin-coated, 6-well plates (Becton Dickinson Labware, Bedford, Mass.) in EndoCult Basal Medium supplemented with 20% fetal bovine serum (StemCell Technologies, Vancouver, Canada) and antibiotics (100 U/ml penicillin G, 100 μg/ml streptomycin) until confluent. […] Outgrown EPCs were identified by the expression of endothelial and progenitor cell surface markers, including von Willebrand factor (a blood glycoprotein involved in coagulation), vascular endothelial-cadherin (where cadherins are a class of transmembrane proteins), vascular endothelial growth factor receptor-2, CD34, and CD133, as well as the absence of the MM marker CD38, determined by immunocytochemistry and flow cytometry. EPCs were passaged when they were 60-70% confluent by trypsin-ethylenediaminetetraacetic acid (EDTA) treatment (Invitrogen, Carlsbad, Calif.) onto 96-well culture plates (BD Biosciences, San Jose, Calif.). […]

NCI-H929 [2] = test: Cell cycle analysis by PI staining and FACS, NCI-H929; type: cell-based, human; conditions: NCI-H929, 10 μM, within 48 h of culture
Description: Cell cycle analysis of control (DMSO-treated) or MAL3-101-treated NCI-H929 (2×10^5) was assessed by PI staining and FACS analysis of samples. Resulting DNA distributions were analyzed for the proportions of cells in G0/G1 and G2/M phases of the cell cycle after subtractive gating of cell doublets and debris as described in G. Anderson, M. Gries, N. Kurihara, T. Honjo, J. Anderson, V. Donnenberg, A. Donnenberg, I. Ghobrial, M. Y. Mapara, D. Stirling, D. Roodman, S. Lentzsch, Thalidomide derivative CC-4047 inhibits osteoclast formation by down-regulation of PU. 1, Blood 107 (2006) 3098-3105, which is incorporated herein by reference.

NCI-H929 [3] = test: Western immunoblotting of caspase-3 and PARP cleavage, NCI-H929; type: cell-based, human; conditions: NCI-H929, 10 μM, time course
Description: Whole-cell lysates were prepared using the Mammalian Cell Lysis Kit (Sigma-Aldrich) and analyzed by Western blot analysis as described in the Zhang reference, cited supra, which is incorporated herein by reference. Equal amounts of protein were separated by SDS-PAGE and electrotransferred onto a nylon membrane. Primary antibodies to detect caspase-3 (Cell Signaling Technology, Danvers, Mass.), poly (ADP-ribose) polymerase (PARP; Abcam, Cambridge, Mass.), and β-actin (Sigma Aldrich) were used along with a HP-conjugated goat-anti-mouse polyclonal secondary antibody (BD Biosciences, Franklin Lakes, N.J.). Enhanced chemiluminescence (ECL) substrate (Pierce Biotechnology, Rockford, Ill.) was used for antibody detection.

[4] = system: EPCs from multiple myeloma patients; test: MTS survival assay, endothelial progenitor cells (EPCs) from MM patients; type: cell-based, human; conditions: FIG. 36C
Description: as §2

[5] = system: normal control BM, PBMC, and EPC populations; test: MTS survival assay, normal control cells; type: cell-based; conditions: FIG. 36D
Description: as §1, with “Canada). Primary MM cells and EPCs were from BM aspirates of newly-diagnosed patients following informed consent. MM cells were enriched to >95% CD138^+ cells by positive selection, using anti-CD138 MACS Microbeads according to the manufacturer's instructions (Miltenyi, San Diego, Calif.).” for “Canada).”

U266 = test: Growth inhibition of MM cell line U266; type: cell-based, human; conditions: U266 compared to NCI-H929
Description: (§3) Viability was estimated according to the following formula: […]
(§4) Control cells were cultured in DMSO.

RPMI-8226 = test: Growth inhibition of MM cell line RPMI-8226; type: cell-based, human; conditions: RPMI-8226 compared to NCI-H929
Description: as §3, §4

Compound	reduction of viability of MM cells extracted from the BM (primary MM cells)	cytotoxicity [1]	decrease in cells in the G2/M phase (NCI-H929 [2])	increase in the sub-G0/G1 phase (NCI-H929 [2])	cleavage of caspase-3 and PARP (NCI-H929 [3])	reduction of viability of EPCs [4]	cytotoxicity in normal control cells [5]	sensitivity to MAL3-101-induced growth inhibition (U266)	sensitivity to MAL3-101-induced growth inhibition (RPMI-8226)
CC(C)C[C@@H](C=O)NC(=O)[C@H](CC(C)C)NC(=O)[C@H](CC(C)C)NC(=O)OCc1ccccc1 [MG-132, reference compound] (Cbz-Leu-Leu-Leu-aldehyde)	44±10%	16 ± 17%	–	–	–	–	–	–	–
CCCCCCN(C(=O)CCCCCN1C(=O)NC(c2ccc(-c3ccccc3)cc2)C(C(=O)OCc2ccccc2)=C1C)C(C(=O)NCCCC)c1ccc(OCC(=O)OC)c(C(=O)OC)c1 (stereo not shown) [MAL3-101]	33±8%	–	2.5 fold	~3 fold	time-dependent increase in the cleavage of caspase-3 and PARP	10±14%	lack of cytotoxicity; also recorded: lack of sensitivity	less sensitive	less sensitive

Source: US8754094B2, “Methods for heat shock protein dependent cancer treatment” (The Research Foundation of State University of New York, priority 2007, dated 2014)
